Data taken from US20210009673A1, “METHODS FOR REGULATING BREAST CANCERS” (priority 2018, published 2021).
No end group written: not given here.

Tests used:
[1] = system: MMTV-PyMT mouse breast cancers; experiment: breast cancer progression in MMTV-PyMT-PTN 1-40 bi-transgenic mice; assay type: in vivo
Excerpt: The MMTV LTP promoter and human cDNA encoding PTN 1-40 (residue −32 to residue 40) was amplified using PCR from pcDNA3.1-Ptn (constructed by our laboratory). After restriction enzyme digestion, MMTV LTR and Ptn 1-40 cDNA were inserted into EcoR V, Not I and EcoR I site of pIRES-EGFP (BD clontech). The sequence of the final transgene construction (MMTV-PTN-IRES-EGFP) was verified by nucleotide sequencing. The transgene construction was freed of the bacterial sequences by digestion with EcoR V and Xho I, producing a 4.0-kb linear DNA fragment. The 4.0-kb linear DNA that was injected into the fertilized eggs of FVB mice consisted of the MMTV-LTR, PTN 1-40 cDNA, IRES (internal ribosomal entry site), EGFP cDNA, SV40 poly-adenylation sequences. Tail DNA from weaning mice derived from the transgene-injected eggs was analyzed by PCR. The mice were housed in animal facility of The Scripps Research Institute and were maintained according to NIH guidelines for the Care and Use of Laboratory Animals.
FVB/N-Tg(MMTV-PyVT)634Mul/J transgenic mice were purchased from Jackson laboratory. They develop spontaneous metastatic mammary carcinomas and have been described in before. […] Transgenic animals were genotyped using PCR analysis of genomic DNA obtained from tails. When possible, litter mates with both genotypes were used in the same experiment.
Mice were examined daily seeking mammary tumors by eye examination and finger palpation after 5 weeks of age. The tumors fully formed on the mammary glands were excised and weighed in 12-14 weeks old mice depending on the tumor size in bi-transgenic mice. Tumor length (L) and width (W) were measured 3 times a week using calipers. Tumor volume was estimated using the formula (L×W2)/2. Total wet tumor weight was weighed by scale when the tumors were excised from sacrificed mice.
The tumor tissue excised from euthanized animals was fixed in 10% buffered formalin and embedded in paraffin. The specimens were sectioned, stained with H&E, and Masson trichrome stain for collagen fibers.
Tumor tissue was fixed by 4% paraformaldehyde in phosphate-buffered saline (PBS). After PBS rinse, the tissues were cryoprotected with 30% sucrose in PBS at […] overnight, then infiltrated with a mixture of 1 parts 30% sucrose phosphate buffer to 1 part Histo Prep™ Frozen tissue embedding media (Fisher Scientific) for ½ hour at room temperature before infiltration with 100% Histo Prep™ and freezing. Cryosections ([…]) were cut and immunohistochemistry was performed using rat anti-mouse CD31 (PECAM-1. BD Pharmingen) antibodies. IMD (number of vessels/mm2) was obtained by counting CD31+ vessels in 10 random fields at ×200 magnification.
Reverse transcription was done using […] total RNA in the presence of 50 ng random hexamers using Ominscipt kit (Qiagen) following manufacturer's recommendations. Real time PCR was done using ICycler (BIORAD). The amplification conditions were: one cycle of 95° C.°, 3 min followed by 40 cycles of 95 C°, 30 sec and 60 C°, 15 sec. GAPDH was used as internal control. The fold changes relative to GAPDH was calculated using the formula: Fold Change=2 L (Ct Target1-CtTarget2)/2 L (Ct GAPDH1-CtGAPDH2) Where: Ct is the threshold of cycle number. Target is the gene measured. Number 1 and 2 represent different samples.

[2] = system: MDA-MB-231 cell xenograft; conditions: ectopic expression; Zhang, Zhong et al. 1997; cited from earlier work
ALK = ALK activation in MDA-MB-231 cells stably transfected with dominant negative PTN (anti-ALK phosphotyrosine 1586/1604 Western blot); assay type: cell-based, human; conditions: cells expressing dominant negative PTN vs empty vector
Method: FIG. 18: FIG. 18 illustrates: that a dominant negative PTN blocks ALK activation. MDA-MB-231 cells were transfected with an empty vector or cDNA encoding a dominant negative PTN 1-40. Cell lysates were prepared and analyzed in Western blots probed with anti-phospho-ALK tyrosine 1586/1604 (left two lanes) or separately with anti-ALK antibodies (right two lanes). Arrows point full length ALK (200 kDa) and activated ALK phosphotyrosines 1586/1604.
To test whether ALK is activated through the PTN/RPTPβ/ζ signaling pathway in MDA-MB-231 cells, lysates from MDA-MB-231 cells, stably transfected with dominant negative PTN, were first analyzed in Western blots probed with anti-ALK and with anti-ALK phosphotyrosine 1586/1604 antibodies specific for activated ALK (Bai, Dieter et al. 1998, Mol Cell Biol 18(12): 6951-61). Anti-ALK phosphotyrosines 1586/1604 immunoreactive proteins were only identified in lysates from MDA-MB-231 empty vector cells, consistent with results above and supporting ALK is activated in cells with an activated PTN/RPTPβ/ζ signaling pathway.
The vector pcDNA3.1/PTN1-40 was constructed by inserting the cDNA fragment encoding residues −32 to 40 of human PTN protein into XbaI and BamHI of pcDNA3.1/myc-his/hygro vector (Invitrogen).

## dominant negative PTN: mutant PTN (residues 1-40) forming mixed disulfide linked heterodimers with wild-type PTN; expressed from cDNA or transgene (GKKEKPEKKVKKSDCGEWQWSVCVPTSGDCGLGTREGTRT; also: forms mixed disulfide linked heterodimers with wild-type PTN; UniProt P21246 33-72, looked up, fragment)
[1]; 13-week mice, 2% in MMTV-PyMT, p=0.017
  percentage area of adenoma/MIN: 12%
[1]; 13-week mice, 20% in MMTV-PyMT, p=0.045
  percentage area occupied by early carcinoma: 41%
[1]; 13-week mice, 78% in MMTV-PyMT, P=0.024
  percentage area occupied by later carcinoma: about 45%
[1]; MMTV-PyMT-PTN 1-40 bi-transgenic mouse breast cancers
  foci of scirrhous carcinoma: not seen
[1]; about 30 in MMTV-PyMT, P<0.05
  average intratumor microvessel density (IMD): about 18 blood vessels/mm2
[1]; compared with MMTV-PyMT mice
  tropoelastin and protocollagen mRNA levels (RT-PCR): not statistically different
[1]; compared with MMTV-PyMT-Ptn and MMTV-PyMT mice
  activated fibroblasts in breast cancers: marked reduction
[2]
  MDA-MB-231 cell xenograft growth in nude mice: prevented MDA-MB-231 cell xenograft growth
ALK
  anti-ALK phosphotyrosines 1586/1604 immunoreactive proteins: essentially non-identifiable
